The conditions of the data set: rcm bond, Zhan-1B, dichloromethane, 25.0 °C.

Each structure is given as a SMILES string. Read-outs that look alike come from different tables or passages of the source.

Molecule `CC[C@H]1COC[C@@H]2c3nc(c(O)c(=O)n31)C(=O)NCc1ccc(F)cc1N(C)CCC=CC(=O)N2C` showed a ring closure, yield of all isomers (from C=CCCN(C)c1cc(F)ccc1CNC(=O)c1nc2n(c(=O)c1O)[C@@H](CC)COC[C@H]2N(C)C(=O)C=C, 2.4 mM, 15.0 h) of 62%.

Molecule `CN1C(=O)C=CCCNc2cc(F)ccc2CNC(=O)c2nc3n(c(=O)c2O)CCCCC31` (centres unmarked) showed a ring closure, yield of all isomers (from C=CCCNc1cc(F)ccc1CNC(=O)c1nc2n(c(=O)c1O)CCCCC2N(C)C(=O)C=C, 2.0 mM, 20.0 h) of 53%.

Molecule `CN1CC=Cc2cc(F)ccc2CNC(=O)c2nc3n(c(=O)c2OS(C)(=O)=O)CCCCC3N(C)C(=O)C1=O` (centres unmarked) gave a ring closure, yield of all isomers (from C=CCN(C)C(=O)C(=O)N(C)C1CCCCn2c1nc(C(=O)NCc1ccc(F)cc1C=C)c(OS(C)(=O)=O)c2=O, 2.6 mM, 60.0 h) of 67%.

In turn, `CN1C(=O)C=CCCOc2cc(F)ccc2CNC(=O)c2nc3n(c(=O)c2O)CCCCC31` (centres unmarked) showed a ring closure, yield of all isomers (from C=CCCOc1cc(F)ccc1CNC(=O)c1nc2n(c(=O)c1O)CCCCC2N(C)C(=O)C=C, 5.14 mM, 15.0 h) of 51%.

For the molecule `CN1C(=O)OCCCC=Cc2cc(F)ccc2CNC(=O)c2nc3n(c(=O)c2OS(C)(=O)=O)CCCCC31` (centres unmarked), for the setting “from C=CCCCOC(=O)N(C)C1CCCCn2c1nc(C(=O)NCc1ccc(F)cc1C=C)c(OS(C)(=O)=O)c2=O, 4.25 mM, 15.0 h”, the ring closure, yield of all isomers stood at 97%.

With `CC[C@H]1COC[C@@H]2c3nc(c(O)c(=O)n31)C(=O)NCc1ccc(F)cc1OCCC=CC(=O)N2C`, the ring closure, yield of all isomers (from C=CCCOc1cc(F)ccc1CNC(=O)c1nc2n(c(=O)c1O)[C@@H](CC)COC[C@H]2N(C)C(=O)C=C, 3.88 mM, 15.0 h) was found to be 51%.

In the case of `CN1CCC=CC(=O)N(C)C2CCCCn3c2nc(c(O)c3=O)C(=O)NCc2ccc(F)cc21` (centres unmarked), the ring closure, yield of all isomers (from C=CCCN(C)c1cc(F)ccc1CNC(=O)c1nc2n(c(=O)c1O)CCCCC2N(C)C(=O)C=C, 1.4 mM, 20.0 h) was determined as 63%.

Regarding `CN1C(=O)CCCC=Cc2cc(F)ccc2CNC(=O)c2nc3n(c(=O)c2OS(C)(=O)=O)CCCCC31` (centres unmarked), for the setting “from C=CCCCC(=O)N(C)C1CCCCn2c1nc(C(=O)NCc1ccc(F)cc1C=C)c(OS(C)(=O)=O)c2=O, 0.9 mM, 24.0 h”, the ring closure, yield of all isomers worked out at 85%.

Values taken from patent US20150203512.
